This assay concerns BDF1 mice, L1210 leukemia sc, survival T/C. The assay can be described thus: NCI In Vivo Anticancer Drug Screen. Data for tumor model L1210 Leukemia (subcutaneous) in B6D2F1 (BDF1) mice. As to conditions: higher = longer survival. Summed up:
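Tumors were transplanted into mice, the animals were treated with compound, survival or tumor size was then measured, and treated values were divided by vehicle-control values.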

The mark [1] stands for this setting: endpoint: median survival time, dose: 108.0 mg/kg/injection, schedule: Q01DX Z (sc), vehicle: methylcellulose (MC).
The mark [2] stands for this setting: endpoint: median survival time, dose: 65.0 mg/kg/injection, schedule: Q01DX Z (sc), vehicle: methylcellulose (MC).
[3] abbreviates: endpoint: median survival time, dose: 180.0 mg/kg/injection, schedule: Q01DX Z (sc), vehicle: methylcellulose (MC).
Setting [4] is: endpoint: median survival time, dose: 23.0 mg/kg/injection, schedule: Q01DX Z (sc), vehicle: methylcellulose (MC).
[5] abbreviates: endpoint: median survival time, dose: 5.0 mg/kg/injection, schedule: Q01DX Z (sc), vehicle: methylcellulose (MC).

Structures are written as SMILES. Inconclusive results and toxic doses are left out.

On to `O=c1[nH]c(=O)n([C@H]2CCCO2)cc1F`, for which the T/C was 107 % of control (endpoint: median survival time, dose: 39.0 mg/kg/injection, schedule: Q01DX009 (ip), vehicle: water); 100 % of control (endpoint: median survival time, dose: 39.0 mg/kg/injection, schedule: Q01DX009 (sc), vehicle: water); 108 % of control (endpoint: median survival time, dose: 65.0 mg/kg/injection, schedule: Q01DX009 (ip), vehicle: water); 109 % of control (endpoint: median survival time, dose: 65.0 mg/kg/injection, schedule: Q01DX009 (sc), vehicle: water); 119 % of control (endpoint: median survival time, dose: 108.0 mg/kg/injection, schedule: Q04DX003 (ip), vehicle: water); 102 % of control (endpoint: median survival time, dose: 108.0 mg/kg/injection, schedule: Q04DX003 (sc), vehicle: water). The T/C is 120 % of control (endpoint: median survival time, dose: 180.0 mg/kg/injection, schedule: Q01DX009 (ip), vehicle: water); 117 % of control (endpoint: median survival time, dose: 180.0 mg/kg/injection, schedule: Q01DX009 (sc), vehicle: water); 120 % of control (endpoint: median survival time, dose: 180.0 mg/kg/injection, schedule: Q04DX003 (ip), vehicle: water); 110 % of control (endpoint: median survival time, dose: 180.0 mg/kg/injection, schedule: Q04DX003 (sc), vehicle: water); 97 % of control (endpoint: median survival time, dose: 300.0 mg/kg/injection, schedule: Q01DX009 (ip), vehicle: water); 100 % of control (endpoint: median survival time, dose: 300.0 mg/kg/injection, schedule: Q01DX009 (sc), vehicle: water). Moreover, the T/C (endpoint: median survival time, dose: 300.0 mg/kg/injection, schedule: Q04DX003 (ip), vehicle: water) is 152 % of control; the T/C (endpoint: median survival time, dose: 500.0 mg/kg/injection, schedule: Q04DX003 (sc), vehicle: water) is 161 % of control; the T/C (endpoint: median survival time, dose: 833.0 mg/kg/injection, schedule: Q04DX003 (ip), vehicle: water) was 168 % of control; the T/C (endpoint: median survival time, dose: 833.0 mg/kg/injection, schedule: Q04DX003 (sc), vehicle: water) was 106 % of control.

For the compound `O=C1NC(O)CCN1C1OC(CO)C(O)C1O` (centres undefined), the T/C (endpoint: median survival time, dose: 125.0 mg/kg/injection, schedule: Q06HX018 (sc), vehicle: saline) is 102 % of control; the T/C (endpoint: median survival time, dose: 125.0 mg/kg/injection, schedule: Q## X018 (sc), vehicle: saline) was 102 % of control; the T/C (endpoint: median survival time, dose: 250.0 mg/kg/injection, schedule: Q06HX018 (sc), vehicle: saline) is 102 % of control; the T/C (endpoint: median survival time, dose: 250.0 mg/kg/injection, schedule: Q## X018 (sc), vehicle: saline) is 102 % of control; the T/C (endpoint: median survival time, dose: 500.0 mg/kg/injection, schedule: Q06HX018 (sc), vehicle: saline) is 108 % of control; the T/C (endpoint: median survival time, dose: 500.0 mg/kg/injection, schedule: Q## X018 (sc), vehicle: saline) was 108 % of control. Moreover, the T/C runs as follows: (endpoint: median survival time, dose: 1000.0 mg/kg/injection, schedule: Q06HX018 (sc), vehicle: saline) 107 % of control; (endpoint: median survival time, dose: 1000.0 mg/kg/injection, schedule: Q## X018 (sc), vehicle: saline) 107 % of control.

Take `CCC(C)SC1=NC=NC2=NC=NC21` (centres undefined): the T/C reads like this: (endpoint: median survival time, dose: 38.9 mg/kg/injection, schedule: Q01DX Z (sc), vehicle: methylcellulose (MC)) 109 % of control; under setting [1], 150 % of control; (endpoint: median survival time, dose: 500.0 mg/kg/injection, schedule: Q01DX Z (sc), vehicle: methylcellulose (MC)) 100 % of control; (endpoint: median survival time, dose: 833.0 mg/kg/injection, schedule: Q01DX Z (sc), vehicle: methylcellulose (MC)) 100 % of control.

Take `OC(CBr)C(O)C(O)C(O)CBr` (centres undefined): the T/C reads like this: (endpoint: median survival time, dose: 108.0 mg/kg/injection, schedule: Q01DX009 (ip), vehicle: steriod suspending solution) 105 % of control; (endpoint: median survival time, dose: 108.0 mg/kg/injection, schedule: Q01DX009 (sc), vehicle: steriod suspending solution) 100 % of control; (endpoint: median survival time, dose: 180.0 mg/kg/injection, schedule: Q01DX009 (ip), vehicle: steriod suspending solution) 116 % of control; (endpoint: median survival time, dose: 180.0 mg/kg/injection, schedule: Q01DX009 (sc), vehicle: steriod suspending solution) 111 % of control; (endpoint: median survival time, dose: 180.0 mg/kg/injection, schedule: Q04DX003 (ip), vehicle: steriod suspending solution) 100 % of control; (endpoint: median survival time, dose: 180.0 mg/kg/injection, schedule: Q04DX003 (sc), vehicle: steriod suspending solution) 105 % of control. The T/C was 122 % of control (endpoint: median survival time, dose: 300.0 mg/kg/injection, schedule: Q01DX009 (ip), vehicle: steriod suspending solution); 116 % of control (endpoint: median survival time, dose: 300.0 mg/kg/injection, schedule: Q01DX009 (sc), vehicle: steriod suspending solution); 111 % of control (endpoint: median survival time, dose: 300.0 mg/kg/injection, schedule: Q04DX003 (ip), vehicle: steriod suspending solution); 111 % of control (endpoint: median survival time, dose: 300.0 mg/kg/injection, schedule: Q04DX003 (sc), vehicle: steriod suspending solution); 155 % of control (endpoint: median survival time, dose: 500.0 mg/kg/injection, schedule: Q01DX009 (sc), vehicle: steriod suspending solution); 100 % of control (endpoint: median survival time, dose: 500.0 mg/kg/injection, schedule: Q04DX003 (ip), vehicle: steriod suspending solution). For the same compound, the T/C was 105 % of control (endpoint: median survival time, dose: 500.0 mg/kg/injection, schedule: Q04DX003 (sc), vehicle: steriod suspending solution); 122 % of control (endpoint: median survival time, dose: 833.0 mg/kg/injection, schedule: Q04DX003 (ip), vehicle: steriod suspending solution); 122 % of control (endpoint: median survival time, dose: 833.0 mg/kg/injection, schedule: Q04DX003 (sc), vehicle: steriod suspending solution); 111 % of control (endpoint: median survival time, dose: 1388.0 mg/kg/injection, schedule: Q01DX009 (sc), vehicle: other); 110 % of control (endpoint: median survival time, dose: 1388.0 mg/kg/injection, schedule: Q01DX009 (sc), vehicle: steriod suspending solution); 110 % of control (endpoint: median survival time, dose: 1388.0 mg/kg/injection, schedule: Q01DX015 (sc), vehicle: other). Also, the T/C (endpoint: median survival time, dose: 1388.0 mg/kg/injection, schedule: Q01DX015 (sc), vehicle: steriod suspending solution) is 110 % of control.

For the compound `O=C(Nc1ccc(C(=O)Nc2ccc(C3=NCCN3)cc2)cc1)Nc1ccc(C2=NCCN2)cc1`, the T/C reads like this: (endpoint: median survival time, dose: 39.0 mg/kg/injection, schedule: Q01DX Z (sc), vehicle: methylcellulose (MC)) 95 % of control; under setting [2], 95 % of control; under setting [1], 100 % of control; under setting [3], 110 % of control.

In the case of `CCC(=O)O[C@H]1CC[C@H]2[C@@H]3CC[C@H]4CC(=O)[C@H](C)C[C@]4(C)[C@H]3CC[C@]12C`, the T/C by setting is: under setting [4], 100 % of control; under setting [2], 100 % of control; under setting [1], 100 % of control; under setting [3], 100 % of control.

As for `COc1cc([C@@H]2c3cc4c(cc3[C@H](O)[C@H]3COC(=O)[C@H]23)OCO4)cc(OC)c1OC`, the T/C is, setting by setting: under setting [5], 109 % of control; (endpoint: median survival time, dose: 8.4 mg/kg/injection, schedule: Q01DX Z (sc), vehicle: methylcellulose (MC)) 109 % of control; (endpoint: median survival time, dose: 14.0 mg/kg/injection, schedule: Q01DX Z (sc), vehicle: methylcellulose (MC)) 104 % of control; under setting [4], 109 % of control.

On to `Nc1cc(C(=O)Nc2ccc(C3=NCCN3)cc2)ccc1C(=O)Nc1ccc(C2=NCCN2)cc1`, for which the T/C by setting is: (endpoint: median survival time, dose: 1.0 mg/kg/injection, schedule: Q01DX Z (iv), vehicle: water) 100 % of control; (endpoint: median survival time, dose: 2.0 mg/kg/injection, schedule: Q01DX Z (iv), vehicle: water) 100 % of control; (endpoint: median survival time, dose: 2.0 mg/kg/injection, schedule: Q01DX Z (sc), vehicle: water) 110 % of control; (endpoint: median survival time, dose: 4.0 mg/kg/injection, schedule: Q01DX Z (iv), vehicle: water) 120 % of control; (endpoint: median survival time, dose: 4.0 mg/kg/injection, schedule: Q01DX Z (sc), vehicle: water) 215 % of control; (endpoint: median survival time, dose: 8.0 mg/kg/injection, schedule: Q01DX Z (iv), vehicle: water) 215 % of control. Moreover, the T/C (endpoint: median survival time, dose: 8.0 mg/kg/injection, schedule: Q01DX Z (sc), vehicle: water) is 230 % of control; the T/C (endpoint: median survival time, dose: 16.0 mg/kg/injection, schedule: Q01DX Z (iv), vehicle: water) is 215 % of control; the T/C (endpoint: median survival time, dose: 16.0 mg/kg/injection, schedule: Q01DX Z (sc), vehicle: water) was 245 % of control; the T/C (endpoint: median survival time, dose: 32.0 mg/kg/injection, schedule: Q01DX Z (sc), vehicle: water) is 195 % of control.

Turning to `CCCCC(=O)N(c1ccc(Nc2c3ccccc3nc3cc([N+](=O)[O-])ccc23)cc1)S(C)(=O)=O`, the T/C is 107 % of control (endpoint: mean survival time, dose: 3.18 mg/kg/injection, schedule: Q01DX009 (sc), vehicle: saline); 112 % of control (endpoint: mean survival time, dose: 6.25 mg/kg/injection, schedule: Q01DX009 (sc), vehicle: saline); 168 % of control (endpoint: mean survival time, dose: 25.0 mg/kg/injection, schedule: Q01DX009 (sc), vehicle: saline).

On to `O=c1[nH]c(=S)c2[nH]c(=O)[nH]c2[nH]1`, for which the T/C is 100 % of control (endpoint: median survival time, dose: 3.0 mg/kg/injection, schedule: Q01DX Z (sc), vehicle: methylcellulose (MC)) and 100 % of control under setting [5].
